Results taken from PubChem BioAssay (NCI).
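Results reflect a 48-hour exposure of cells in 96-well plates to compound at five concentrations. The concentration for 50% growth inhibition is given as GI50. TGI: total growth inhibition.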

Columns and labels:
Assay in all cases: growth of human tumour cells (NCI), 48 h
M14 melanoma = tested on: M14 melanoma
HT29 colon = tested on: HT29 colon
HL-60(TB) leukemia = tested on: HL-60(TB) leukemia
SK-MEL-5 melanoma = tested on: SK-MEL-5 melanoma
SNB-19 CNS = tested on: SNB-19 CNS
MDA-MB-231 breast = tested on: MDA-MB-231 breast
MALME-3M melanoma = tested on: MALME-3M melanoma
HOP-92 NSCLC = tested on: HOP-92 NSCLC
NCI-H23 lung = tested on: NCI-H23 lung
CCRF-CEM leukemia = tested on: CCRF-CEM leukemia

Compound	TGI (M14 melanoma)	TGI (HT29 colon)	TGI (HL-60(TB) leukemia)	TGI (SK-MEL-5 melanoma)	TGI (SNB-19 CNS)	TGI (MDA-MB-231 breast)	TGI (MALME-3M melanoma)	TGI (HOP-92 NSCLC)	TGI (NCI-H23 lung)	TGI (CCRF-CEM leukemia)	GI50 (HT29 colon)	GI50 (NCI-H23 lung)	GI50 (CCRF-CEM leukemia)	GI50 (HL-60(TB) leukemia)	GI50 (SK-MEL-5 melanoma)	GI50 (HOP-92 NSCLC)	GI50 (SNB-19 CNS)	GI50 (MDA-MB-231 breast)	GI50 (MALME-3M melanoma)
O=C1OC2(c3ccc(O)cc3Oc3cc(O)ccc32)c2c1c(-c1ccccc1)c(-c1ccccc1)c(-c1ccccc1)c2-c1ccccc1	34.4 µM	40.4 µM	39.4 µM	54 µM	37.7 µM	37.4 µM	44.6 µM	36.8 µM	–	–	–	–	–	–	–	–	–	–	–
O=C1c2ccccc2C(=O)c2c(O)c(O)cc(O)c21	> 100 µM	–	56.5 µM	> 100 µM	> 100 µM	–	> 100 µM	76.2 µM	> 100 µM	> 100 µM	–	–	–	–	–	–	–	–	–
COc1cc2c3c(n(C4CCNCC4)c(=O)c2cc1OC)-c1cc2c(cc1C3=O)OCO2	–	2.33 µM	1.49 µM	1.46 µM	–	–	–	28.3 µM	2.39 µM	2.25 µM	0.264 µM	0.538 µM	0.287 µM	0.364 µM	0.322 µM	2.45 µM	–	–	–
CCCCCCCCCCCCCCCCOCCCOP(=O)(O)C1CCCN(O)C1=O (stereo not drawn)	–	83.5 µM	10.3 µM	14.7 µM	14.5 µM	16.8 µM	10.8 µM	40 µM	20.5 µM	30 µM	0.953 µM	4.19 µM	0.553 µM	1.31 µM	3.74 µM	6.08 µM	0.63 µM	2.3 µM	2.64 µM
NC(=O)c1cc(C2OC(CO)C(O)C2O)nn1-c1ccc([N+](=O)[O-])cc1 (stereo not drawn)	> 100 µM	> 100 µM	> 100 µM	> 100 µM	> 100 µM	–	> 100 µM	> 100 µM	> 100 µM	> 100 µM	–	–	–	–	–	–	–	–	–
COc1ccc(/C=C/[N+](=O)[O-])cc1	6.48 µM	11.2 µM	8.82 µM	30.2 µM	12.7 µM	55.3 µM	35.3 µM	–	59.9 µM	–	–	–	–	–	–	–	–	–	–
COc1cc2c3c(c4cc(OC)c(OC)cc4c2cc1OC)[C@H](O)[C@@H]1CCCN1C3	2.06 µM	1.53 µM	3.49 µM	1.11 µM	> 100 µM	0.562 µM	6.69 µM	2.32 µM	1.93 µM	> 100 µM	–	–	–	–	–	–	–	–	–
N#CC1=C(N)Nc2nc3ccccc3n2C1c1ccccc1 (stereo not drawn)	> 100 µM	> 100 µM	> 100 µM	> 100 µM	> 100 µM	> 100 µM	–	–	> 100 µM	> 100 µM	–	–	–	–	–	–	–	–	–
S=C1NN=C2C(=C3CCCC4C5CCCCC5N2C34)N1 (stereo not drawn)	> 100 µM	–	> 100 µM	> 100 µM	> 100 µM	–	> 100 µM	> 100 µM	> 100 µM	> 100 µM	–	–	–	–	–	–	–	–	–
COC1/C=C\OC2(C)Oc3c(C)c(O)c4c(O)c(c(CN(C)C)c(O)c4c3C2=O)NC(=O)/C(C)=C\C=C/C(C)C(O)C(C)C(O)C(C)C(OC(C)=O)C1C (stereo not drawn)	42.1 µM	54.4 µM	50.8 µM	36.8 µM	> 100 µM	92.8 µM	39.3 µM	> 100 µM	31.3 µM	–	–	–	–	–	–	–	–	–	–
COc1ccc2c(c1)/C(=C\c1cccc(/C=C3/C(=O)Nc4ccc(OC)cc43)n1)C(=O)N2	3.22 µM	–	2.05 µM	2.24 µM	3.38 µM	4.78 µM	5.51 µM	7.44 µM	2.6 µM	> 38 µM	–	–	–	–	–	–	–	0.873 µM	–
